# Tests used:
# [1] = target: T1, Sterol O-acyltransferase 2 (Homo sapiens, UniProt O75908); experiment: Inhibition of ACAT2 (unknown origin)
# T1 sequence (O75908 whole entry): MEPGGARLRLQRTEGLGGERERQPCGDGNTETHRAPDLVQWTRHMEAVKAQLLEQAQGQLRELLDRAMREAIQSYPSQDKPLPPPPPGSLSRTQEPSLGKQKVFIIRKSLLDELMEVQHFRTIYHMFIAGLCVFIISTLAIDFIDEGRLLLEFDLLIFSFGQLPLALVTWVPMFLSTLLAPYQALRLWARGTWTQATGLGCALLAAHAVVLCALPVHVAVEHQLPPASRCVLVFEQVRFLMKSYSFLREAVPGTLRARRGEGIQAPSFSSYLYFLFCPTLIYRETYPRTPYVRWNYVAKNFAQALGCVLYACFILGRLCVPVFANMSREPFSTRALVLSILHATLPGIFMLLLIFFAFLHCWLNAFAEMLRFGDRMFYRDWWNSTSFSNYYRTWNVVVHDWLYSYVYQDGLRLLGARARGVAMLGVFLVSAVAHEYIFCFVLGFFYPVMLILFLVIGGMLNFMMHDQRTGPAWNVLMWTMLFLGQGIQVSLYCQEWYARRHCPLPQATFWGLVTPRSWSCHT
# [2] = species on record: Homo sapiens; experiment: Selectivity index, ratio of IC50 for ACAT1 (unknown origin) to IC50 for ACAT2 (unknown origin)
# [3] = target: T2, Sterol O-acyltransferase 1 (Homo sapiens, UniProt P35610); experiment: Inhibition of ACAT1 (unknown origin)
# T2 sequence (P35610 whole entry): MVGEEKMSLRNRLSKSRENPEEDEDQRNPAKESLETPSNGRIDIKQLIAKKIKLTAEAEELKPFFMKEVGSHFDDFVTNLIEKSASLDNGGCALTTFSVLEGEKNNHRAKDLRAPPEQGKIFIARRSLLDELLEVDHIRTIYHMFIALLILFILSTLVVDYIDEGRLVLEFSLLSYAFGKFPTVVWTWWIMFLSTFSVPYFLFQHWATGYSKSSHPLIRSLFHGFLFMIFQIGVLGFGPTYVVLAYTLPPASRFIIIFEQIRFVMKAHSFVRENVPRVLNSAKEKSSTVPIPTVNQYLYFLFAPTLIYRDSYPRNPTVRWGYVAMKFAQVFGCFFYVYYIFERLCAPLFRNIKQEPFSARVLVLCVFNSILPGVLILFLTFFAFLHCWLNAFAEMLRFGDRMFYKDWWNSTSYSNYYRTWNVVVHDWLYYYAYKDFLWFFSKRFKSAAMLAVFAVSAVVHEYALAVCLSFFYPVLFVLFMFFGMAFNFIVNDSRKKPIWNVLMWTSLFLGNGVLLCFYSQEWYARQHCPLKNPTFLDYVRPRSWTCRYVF
SMILES,IC50 [1],Ratio IC50 [2],IC50 [3]
C[C@@]12CO[C@@H](c3ccccc3F)O[C@H]1CC[C@@]1(C)[C@H]2C[C@H](OC(=O)c2ccc(C#N)cc2)[C@@]2(C)Oc3cc(-c4cccnc4)oc(=O)c3[C@H](O)[C@H]12,0.0068 µM,,
Cc1ccc([C@@H]2OC[C@@]3(C)[C@@H]4C[C@H](OC(=O)c5ccc(F)cc5)[C@@]5(C)Oc6cc(-c7cccnc7)oc(=O)c6[C@H](O)[C@@H]5[C@@]4(C)CC[C@@H]3O2)cc1,0.0151 µM,367,5.54 µM
COc1ccc(C(=O)O[C@H]2C[C@H]3[C@]4(C)CO[C@@H](c5ccccc5)O[C@H]4CC[C@]3(C)[C@H]3[C@@H](O)c4c(cc(-c5cccnc5)oc4=O)O[C@]23C)cc1,0.014 µM,493,6.9 µM
Cc1ccccc1[C@@H]1OC[C@@]2(C)[C@@H]3C[C@H](OC(=O)c4ccc(F)cc4)[C@@]4(C)Oc5cc(-c6cccnc6)oc(=O)c5[C@H](O)[C@@H]4[C@@]3(C)CC[C@@H]2O1,0.023 µM,,
C[C@@]12CO[C@@H](c3ccccc3)O[C@H]1CC[C@@]1(C)[C@H]2C[C@H](OC(=O)c2ccc(C=O)cc2)[C@@]2(C)Oc3cc(-c4cccnc4)oc(=O)c3[C@H](O)[C@H]12,0.03 µM,183,5.5 µM
Cc1ccc([C@@H]2OC[C@@]3(C)[C@@H]4C[C@H](OC(=O)c5ccc(C#N)cc5)[C@@]5(C)Oc6cc(-c7cccnc7)oc(=O)c6[C@H](O)[C@@H]5[C@@]4(C)CC[C@@H]3O2)cc1,0.0097 µM,836,8.11 µM
C[C@@]12CO[C@@H](c3ccccc3)O[C@H]1CC[C@@]1(C)[C@H]2C[C@H](OC(=O)c2ccc([N+](=O)[O-])cc2)[C@@]2(C)Oc3cc(-c4cccnc4)oc(=O)c3[C@H](O)[C@H]12,0.06 µM,232,13.9 µM
C[C@@]12CO[C@@H](c3ccccc3)O[C@H]1CC[C@@]1(C)[C@H]2C[C@H](OC(=O)c2ccc(F)cc2)[C@@]2(C)Oc3cc(-c4cccnc4)oc(=O)c3[C@H](O)[C@H]12,0.007 µM,886,6.2 µM
C[C@@]12CO[C@@H](c3ccccc3)O[C@H]1CC[C@@]1(C)[C@H]2C[C@H](OC(=O)c2ccccc2F)[C@@]2(C)Oc3cc(-c4cccnc4)oc(=O)c3[C@H](O)[C@H]12,0.05 µM,54,2.7 µM
C[C@@]12CO[C@@H](c3ccccc3)O[C@H]1CC[C@@]1(C)[C@H]2C[C@H](OC(=O)c2ccccc2C#N)[C@@]2(C)Oc3cc(-c4cccnc4)oc(=O)c3[C@H](O)[C@H]12,0.32 µM,,
C[C@@]12CO[C@@H](c3ccccc3)O[C@H]1CC[C@@]1(C)[C@H]2C[C@H](OC(=O)c2ccccc2Cl)[C@@]2(C)Oc3cc(-c4cccnc4)oc(=O)c3[C@H](O)[C@H]12,0.11 µM,16.2,1.78 µM
C[C@@]12CO[C@@H](c3ccccc3)O[C@H]1CC[C@@]1(C)[C@H]2C[C@H](OC(=O)c2ccc(C#N)cc2)[C@@]2(C)Oc3cc(-c4cccnc4)oc(=O)c3[C@H](O)[C@H]12,0.006 µM,467,2.8 µM
Cc1ccc([C@@H]2OC[C@@]3(C)[C@@H]4C[C@H](OC(=O)c5ccc(C#N)cc5)[C@@]5(C)Oc6cc(-c7cccnc7)oc(=O)c6[C@H](O)[C@@H]5[C@@]4(C)CC[C@@H]3O2)c(C)c1,0.0066 µM,1520,10 µM
Cc1cccc(C)c1[C@@H]1OC[C@@]2(C)[C@@H]3C[C@H](OC(=O)c4ccc(C#N)cc4)[C@@]4(C)Oc5cc(-c6cccnc6)oc(=O)c5[C@H](O)[C@@H]4[C@@]3(C)CC[C@@H]2O1,0.0072 µM,> 9920,> 71.2 µM
COc1ccccc1C(=O)O[C@H]1C[C@H]2[C@]3(C)CO[C@@H](c4ccccc4)O[C@H]3CC[C@]2(C)[C@H]2[C@@H](O)c3c(cc(-c4cccnc4)oc3=O)O[C@]12C,0.32 µM,10.5,3.4 µM
C[C@@]12CO[C@@H](c3ccccc3)O[C@H]1CC[C@@]1(C)[C@H]2C[C@H](OC(=O)c2cccc(Br)c2)[C@@]2(C)Oc3cc(-c4cccnc4)oc(=O)c3[C@H](O)[C@H]12,0.03 µM,143,4.3 µM
C[C@@]12CO[C@@H](c3ccccc3)O[C@H]1CC[C@@]1(C)[C@H]2C[C@H](OC(=O)c2cccc(F)c2)[C@@]2(C)Oc3cc(-c4cccnc4)oc(=O)c3[C@H](O)[C@H]12,0.013 µM,231,3 µM
Cc1cccc([C@@H]2OC[C@@]3(C)[C@@H]4C[C@H](OC(=O)c5ccc(F)cc5)[C@@]5(C)Oc6cc(-c7cccnc7)oc(=O)c6[C@H](O)[C@@H]5[C@@]4(C)CC[C@@H]3O2)c1,0.0476 µM,200,9.51 µM
CC(=O)OC[C@@]1(C)[C@@H]2C[C@H](OC(=O)c3ccc(C#N)cc3)[C@@]3(C)Oc4cc(-c5cccnc5)oc(=O)c4[C@H](O)[C@@H]3[C@@]2(C)CC[C@@H]1OC(C)=O,,4620,
COc1ccccc1[C@@H]1OC[C@@]2(C)[C@@H]3C[C@H](OC(=O)c4ccc(C#N)cc4)[C@@]4(C)Oc5cc(-c6cccnc6)oc(=O)c5[C@H](O)[C@@H]4[C@@]3(C)CC[C@@H]2O1,0.0368 µM,> 1930,> 71 µM
CCCCC(=O)O[C@H]1C[C@H]2[C@]3(C)CO[C@@H](c4ccccc4)O[C@H]3CC[C@]2(C)[C@H]2[C@@H](O)c3c(cc(-c4cccnc4)oc3=O)O[C@]12C,0.02 µM,200,4 µM
Cc1cccc([C@@H]2OC[C@@]3(C)[C@@H]4C[C@H](OC(=O)c5ccc(C#N)cc5)[C@@]5(C)Oc6cc(-c7cccnc7)oc(=O)c6[C@H](O)[C@@H]5[C@@]4(C)CC[C@@H]3O2)c1,0.0078 µM,478,3.73 µM
C[C@@]12CO[C@@H](c3ccccc3)O[C@H]1CC[C@@]1(C)[C@H]2C[C@H](OC(=O)c2cccc(Cl)c2)[C@@]2(C)Oc3cc(-c4cccnc4)oc(=O)c3[C@H](O)[C@H]12,0.019 µM,142,2.7 µM
C[C@@]12CO[C@@H](c3ccccc3)O[C@H]1CC[C@@]1(C)[C@H]2C[C@H](OC(=O)c2ccc(Cl)cc2)[C@@]2(C)Oc3cc(-c4cccnc4)oc(=O)c3[C@H](O)[C@H]12,0.009 µM,644,5.8 µM
C[C@@]12CO[C@@H](c3ccccc3)O[C@H]1CC[C@@]1(C)[C@H]2C[C@H](OC(=O)c2cccc(C#N)c2)[C@@]2(C)Oc3cc(-c4cccnc4)oc(=O)c3[C@H](O)[C@H]12,0.03 µM,73.3,2.2 µM
C[C@@]12CO[C@@H](c3ccccc3)O[C@H]1CC[C@@]1(C)[C@H]2C[C@H](OC(=O)c2ccc(Br)cc2)[C@@]2(C)Oc3cc(-c4cccnc4)oc(=O)c3[C@H](O)[C@H]12,0.01 µM,690,6.9 µM
CCCCC(=O)O[C@H]1C[C@H]2[C@]3(C)CO[C@@H](c4ccccc4C)O[C@H]3CC[C@]2(C)[C@H]2[C@@H](O)c3c(cc(-c4cccnc4)oc3=O)O[C@]12C,0.01 µM,320,3.2 µM
COc1cccc(C(=O)O[C@H]2C[C@H]3[C@]4(C)CO[C@@H](c5ccccc5)O[C@H]4CC[C@]3(C)[C@H]3[C@@H](O)c4c(cc(-c5cccnc5)oc4=O)O[C@]23C)c1,0.07 µM,61.4,4.3 µM
Cc1ccccc1[C@@H]1OC[C@@]2(C)[C@@H]3C[C@H](OC(=O)c4ccc(C#N)cc4)[C@@]4(C)Oc5cc(-c6cccnc6)oc(=O)c5[C@H](O)[C@@H]4[C@@]3(C)CC[C@@H]2O1,0.0118 µM,> 6160,> 72.8 µM
C[C@@]12CO[C@@H](c3cccc4ccccc34)O[C@H]1CC[C@@]1(C)[C@H]2C[C@H](OC(=O)c2ccc(C#N)cc2)[C@@]2(C)Oc3cc(-c4cccnc4)oc(=O)c3[C@H](O)[C@H]12,0.0232 µM,> 2980,> 69.1 µM
